Reference: patent US20250163038A1, “CBL-B MODULATORS AND USES THEREOF” (Nimbus Clio, Inc., priority 2021, published 2025)
Like-named read-outs stand apart in the source and are kept apart here.

How the values were obtained:
[1] = molecular target: Recombinant human Cbl-b (aa 36-427) (Homo sapiens, UniProt Q13191); test: Cbl-b Biochemical Assay (TR-FRET)
[2] = molecular target: T1, Recombinant human c-Cbl (aa 47-435) (Homo sapiens, UniProt P22681); test: c-Cbl Biochemical Assay (TR-FRET)
T1 sequence (P22681 47-435): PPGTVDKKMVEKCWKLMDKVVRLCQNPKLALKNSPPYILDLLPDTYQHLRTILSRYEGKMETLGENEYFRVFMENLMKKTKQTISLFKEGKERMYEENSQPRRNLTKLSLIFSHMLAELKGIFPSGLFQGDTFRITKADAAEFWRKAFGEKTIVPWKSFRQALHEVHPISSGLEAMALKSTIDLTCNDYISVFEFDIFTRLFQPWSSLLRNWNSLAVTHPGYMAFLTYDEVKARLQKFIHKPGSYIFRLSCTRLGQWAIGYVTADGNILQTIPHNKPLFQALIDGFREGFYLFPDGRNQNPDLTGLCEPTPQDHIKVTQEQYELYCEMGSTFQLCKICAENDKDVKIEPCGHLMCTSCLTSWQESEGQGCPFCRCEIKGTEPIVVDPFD

[3] = system: Jurkat (clone E6-1) cells with NFAT luciferase reporter; test: Jurkat reporter assay (NFAT Luciferase); type: cell-based
[4] = hc-Cbl Biochemical Assay (TR-FRET), read-out: TR-FRET hcCbl IC50
[5] = Homo sapiens, Jurkat NFAT luciferase reporter cells, anti-CD3 stimulation, 6 hr, read-out: Jurkat NFAT EC50

Sequence of Recombinant human Cbl-b (aa 36-427) (Q13191 36-427): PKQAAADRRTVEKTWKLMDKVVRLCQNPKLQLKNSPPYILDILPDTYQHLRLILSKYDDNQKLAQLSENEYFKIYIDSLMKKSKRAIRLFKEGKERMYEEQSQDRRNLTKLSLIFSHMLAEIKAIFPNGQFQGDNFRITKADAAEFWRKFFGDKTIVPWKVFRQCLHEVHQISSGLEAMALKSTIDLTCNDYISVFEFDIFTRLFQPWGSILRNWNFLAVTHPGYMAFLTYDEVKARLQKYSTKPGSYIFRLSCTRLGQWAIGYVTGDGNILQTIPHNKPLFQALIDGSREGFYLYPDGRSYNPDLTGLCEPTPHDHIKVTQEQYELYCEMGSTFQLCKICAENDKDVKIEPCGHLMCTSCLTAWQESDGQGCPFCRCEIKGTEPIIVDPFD

Row | IC50 ([1]; read-out: TR-FRET hCbl-b IC50) | IC50 [2, 4] | EC50 [3, 5] | EC50 ([3]; Jurkat NFAT luciferase reporter cells, anti-CD3 stimulation, 6 hr, read-out: Jurkat NFAT EC50) | SMILES | EC50 ([3]; Homo sapiens, Jurkat, 6 h, read-out: Jurkat NFAT EC50 (μM)) | IC50 [1] | IC50 [2]
1 | < 200 nM | < 200 nM | < 0.2 µM | – | CC[C@H](O)CNCc1cc(C(F)(F)F)c2oc(-c3cccc(-c4ccc(F)cc4-c4nncn4C)c3)nc2c1 [DG-2, (S)-1-(((2-(4′-Fluoro-2′-(4-methyl-4H-1,2,4-triazol-3-yl)-[1,1′-biphenyl]-3-yl)-7-(trifluoromethyl)benzo[d]oxazol-5-yl)methyl)amino)butan-2-ol] | – | – | –
2 | < 200 nM | < 200 nM | – | < 0.2 µM | Cn1cnnc1-c1cc(F)ccc1-c1cccc(-c2nc3cc(CN[C@H]4CC[C@@H]4O)cc(C(F)(F)F)c3o2)c1 (single isomer, unassigned) [ADH-1] | – | – | –
3 | 10000 to 50000 nM | 10000 to 50000 nM | 10 to 50 µM | – | Cn1cnnc1-c1cc(F)ccc1-c1cccc(-c2cn3ccc(CO)cc3n2)c1 [GN-5, (2-(4′-Fluoro-2′-(4-methyl-4H-1,2,4-triazol-3-yl)-[1,1′-biphenyl]-3-yl)imidazo[1,2-a]pyridin-7-yl)methanol] | – | – | –
4 | < 200 nM | 200 to 1000 nM | 1 to 10 µM | – | CO[C@@H](CO)c1cc(C(F)(F)F)c2oc(-c3cccc(-c4ccc(F)cc4-c4nncn4C)c3)nc2c1 (single isomer, unassigned) [EG-3] | – | – | –
5 | < 200 nM | 200 to 1000 nM | 1 to 10 µM | – | COCC(C)(C)NCc1cc(C(F)(F)F)c2oc(-c3cccc(-c4ccc(F)cc4-c4nncn4C)c3)nc2c1 [EO-2, N-((2-(4′-Fluoro-2′-(4-methyl-4H-1,2,4-triazol-3-yl)-[1,1′-biphenyl]-3-yl)-7-(trifluoromethyl)benzo[d]oxazol-5-yl)methyl)-1-methoxy-2-methylpropan-2-amine] | – | – | –
6 | < 200 nM | < 200 nM | < 0.2 µM | – | Cn1cnnc1-c1cc(F)ccc1-c1cccc(-c2nc3cc(CNCC(C)(C)F)cc(C(F)(F)F)c3o2)c1 [DA-1, 2-Fluoro-N-((2-(4′-fluoro-2′-(4-methyl-4H-1,2,4-triazol-3-yl)-[1,1′-biphenyl]-3-yl)-7-(trifluoromethyl)benzo[d]oxazol-5-yl)methyl)-2-methylpropan-1-amine] | – | – | –
7 | 200 to 1000 nM | 200 to 1000 nM | 1 to 10 µM | – | Cn1cnnc1-c1cc(F)ccc1-c1cc(-c2nc3cc(CO)cc(F)c3o2)nc(C2CC2)c1 [AFA-2, (2-{6-Cyclopropyl-4-[4-fluoro-2-(4-methyl-1,2,4-triazol-3-yl)phenyl]pyridin-2-yl}-7-fluoro-1,3-benzoxazol-5-yl)methanol] | – | – | –
8 | < 200 nM | 1000 to 10000 nM | 1 to 10 µM | – | Cn1cnnc1-c1cc(F)ccc1-c1cccc(-c2nc3cc(CO)cc(C(F)(F)F)c3[nH]2)c1 [BJ-1, (2-(4′-Fluoro-2′-(4-methyl-4H-1,2,4-triazol-3-yl)-[1,1′-biphenyl]-3-yl)-7-(trifluoromethyl)-1H-benzo[d]imidazol-5-yl)methanol] | – | – | –
9 | < 200 nM | 200 to 1000 nM | 0.2 to 1 µM | – | COc1cc(CNCC2COC2)cc2nc(-c3cccc(-c4ccc(F)cc4-c4nncn4C)c3)oc12 [GZ-1, 1-(2-(4′-Fluoro-2′-(4-methyl-4H-1,2,4-triazol-3-yl)-[1,1′-biphenyl]-3-yl)-7-methoxybenzo[d]oxazol-5-yl)-N-(oxetan-3-ylmethyl)methanamine] | – | – | –
10 | < 200 nM | < 200 nM | < 0.2 µM | – | Cn1cnnc1-c1cc(F)ccc1-c1cccc(-c2nc3cc(CNCC4CCCC4)cc(C(F)(F)F)c3o2)c1 [DV-2, 1-Cyclopentyl-N-((2-(4′-fluoro-2′-(4-methyl-4H-1,2,4-triazol-3-yl)-[1,1′-biphenyl]-3-yl)-7-(trifluoromethyl)benzo[d]oxazol-5-yl)methyl)methanamine] | – | – | –
11 | < 200 nM | 1000 to 10000 nM | 0.2 to 1 µM | – | COCCNCc1cc(C(F)(F)F)c2oc(-c3cccc(-c4ccc(F)cc4-c4nncn4C)c3)nc2c1 [AA-2, N-((2-(4′-Fluoro-2′-(4-methyl-4H-1,2,4-triazol-3-yl)-[1,1′-biphenyl]-3-yl)-7-(trifluoromethyl)benzo[d]oxazol-5-yl)methyl)-2-methoxyethan-1-amine] | – | – | –
12 | < 200 nM | 200 to 1000 nM | 1 to 10 µM | – | COCCNC(COC)c1cc(C)c2oc(-c3cccc(-c4ccc(F)cc4-c4nncn4C)c3)nc2c1 (stereo not drawn) [JK-7, 1-(2-(4′-Fluoro-2′-(4-methyl-4H-1,2,4-triazol-3-yl)-[1,1′-biphenyl]-3-yl)-7-methylbenzo[d]oxazol-5-yl)-2-methoxy-N-(2-methoxyethyl)ethan-1-amine] | – | – | –
13 | < 200 nM | < 200 nM | < 0.2 µM | – | CN(Cc1cc(C(F)(F)F)c2oc(-c3cccc(-c4ccc(F)cc4-c4nncn4C)c3)nc2c1)CC1(O)CCC1 [IA-1, 1-((((2-(4′-Fluoro-2′-(4-methyl-4H-1,2,4-triazol-3-yl)-[1,1′-biphenyl]-3-yl)-7-(trifluoromethyl)benzo[d]oxazol-5-yl)methyl)(methyl)amino)methyl)cyclobutan-1-ol] | – | – | –

The next lines start with the compound.

Row | SMILES | IC50 ([1]; read-out: TR-FRET hCbl-b IC50) | IC50 [2, 4] | EC50 [3, 5] | EC50 ([3]; Jurkat NFAT luciferase reporter cells, anti-CD3 stimulation, 6 hr, read-out: Jurkat NFAT EC50) | EC50 ([3]; Homo sapiens, Jurkat, 6 h, read-out: Jurkat NFAT EC50 (μM)) | IC50 [1] | IC50 [2]
14 | Cn1cnnc1-c1cc(F)ccc1-c1cccc(-c2nc3cc(CN[C@@H]4CCC[C@@H]4O)cc(Cl)c3o2)c1 [HG-7, (1S,2R)-2-(((7-Chloro-2-(4′-fluoro-2′-(4-methyl-4H-1,2,4-triazol-3-yl)-[1,1′-biphenyl]-3-yl)benzo[d]oxazol-5-yl)methyl)amino)cyclopentan-1-ol] | < 200 nM | < 200 nM | – | – | < 0.2 µM | – | –
15 | COC[C@@H](C)NCc1cc(F)c2oc(-c3cc(-c4ccc(F)cc4-c4nncn4C)cc(C4CC4)n3)nc2c1 [AFV-1, [(2-{6-Cyclopropyl-4-[4-fluoro-2-(4-methyl-1,2,4-triazol-3-yl)phenyl]pyridin-2-yl}-7-fluoro-1,3-benzoxazol-5-yl)methyl][(2R)-1-methoxypropan-2-yl]amine] | < 200 nM | 200 to 1000 nM | 0.2 to 1 µM | – | – | – | –
16 | Cn1cnnc1-c1cc(C#N)ccc1-c1cc(-c2nc3cc(CNCC4CCC4)ccc3o2)nc(C2CC2)c1 [AEO-1, 4-[2-(5-{[(Cyclobutylmethyl)amino]methyl}-1,3-benzoxazol-2-yl)-6-cyclopropylpyridin-4-yl]-3-(4-methyl-1,2,4-triazol-3-yl)benzonitrile] | < 200 nM | < 200 nM | < 0.2 µM | – | – | – | –
17 | Cn1cnnc1-c1cc(F)ccc1-c1cc(-c2nc3cc(CN[C@@H]4CCC[C@@H]4O)cc(C(F)(F)F)c3[nH]2)nc(C2CC2)c1 [ADV-2, (1S,2R)-2-{[(2-{6-Cyclopropyl-4-[4-fluoro-2-(4-methyl-1,2,4-triazol-3-yl)phenyl]pyridin-2-yl}-7-(trifluoromethyl)-1H-1,3-benzodiazol-5-yl)methyl]amino}cyclopentan-1-ol] | < 200 nM | < 200 nM | < 0.2 µM | – | – | – | –
18 | Cn1cnnc1-c1cc(F)ccc1-c1cccc(-c2nc3cc(CNC[C@@]4(C)CCO4)cc(C(F)(F)F)c3o2)c1 [HL-2, (R)-1-(2-(4′-Fluoro-2′-(4-methyl-4H-1,2,4-triazol-3-yl)-[1,1′-biphenyl]-3-yl)-7-(trifluoromethyl)benzo[d]oxazol-5-yl)-N-((2-methyloxetan-2-yl)methyl)methanamine] | < 200 nM | < 200 nM | 0.2 to 1 µM | – | – | – | –
19 | Cc1c(F)c(CO)cc2nc(-c3cc(-c4ccc(F)cc4-c4nncn4C)cc(C4CC4)n3)oc12 [AGP-7, (2-{6-Cyclopropyl-4-[4-fluoro-2-(4-methyl-1,2,4-triazol-3-yl)phenyl]pyridin-2-yl}-6-fluoro-7-methyl-1,3-benzoxazol-5-yl)methanol] | 200 to 1000 nM | 1000 to 10000 nM | 1 to 10 µM | – | – | – | –
20 | CO[C@H]1CCC[C@H]1N(C)Cc1cc(C(F)(F)F)c2oc(-c3cccc(-c4ccc(F)cc4-c4nncn4C)c3)nc2c1 [CN-5, (1R,2S)—N-((2-(4′-Fluoro-2′-(4-methyl-4H-1,2,4-triazol-3-yl)-[1,1′-biphenyl]-3-yl)-7-(trifluoromethyl)benzo[d]oxazol-5-yl)methyl)-2-methoxy-N-methylcyclopentan-1-amine] | < 200 nM | 200 to 1000 nM | 0.2 to 1 µM | – | – | – | –
21 | Cn1cnnc1-c1cc(F)ccc1-c1cc(-c2nc3cc(CN[C@@H]4CCC[C@@H]4O)cc(F)c3o2)nc(C2CC2)c1 [AFB-2, (1S,2R)-2-{[(2-{6-Cyclopropyl-4-[4-fluoro-2-(4-methyl-1,2,4-triazol-3-yl)phenyl]pyridin-2-yl}-7-fluoro-1,3-benzoxazol-5-yl)methyl]amino}cyclopentan-1-ol] | – | – | < 0.2 µM | – | – | < 200 nM | < 200 nM
22 | O[C@H]1CCC[C@H]1NCc1cc(C(F)(F)F)c2oc(-c3cccc(-c4ccc(F)cc4-c4nnco4)c3)nc2c1 [IG-6, (1S,2R)-2-(((2-(4′-Fluoro-2′-(1,3,4-oxadiazol-2-yl)-[1,1′-biphenyl]-3-yl)-7-(trifluoromethyl)benzo[d]oxazol-5-yl)methyl)amino)cyclopentan-1-ol] | < 200 nM | < 200 nM | 0.2 to 1 µM | – | – | – | –
23 | CC(c1cc(C(F)(F)F)c2oc(-c3cccc(C4(Cc5nncn5C)COC4)c3)nc2c1)N1CCC2(CC2)C1 (stereo not drawn) [AAB-9, 5-(1-{5-Azaspiro[2.4]heptan-5-yl}ethyl)-2-(3-{3-[(4-methyl-1,2,4-triazol-3-yl)methyl]oxetan-3-yl}phenyl)-7-(trifluoromethyl)-1,3-benzoxazole] | < 200 nM | 1000 to 10000 nM | 0.2 to 1 µM | – | – | – | –
